Source: patent publication US20260184707A1, “PHARMACEUTICAL COMPOUNDS FOR THE TREATMENT OF COMPLEMENT MEDIATED DISORDERS” (ALEXION PHARMACEUTICALS, INC., priority 2022, published 2026)
pIC50: −log10 of the molar value.

biological target: T1, Human complement C1s enzyme (Homo sapiens, UniProt P09871); test: Human C1s enzyme assay; assay type: biochemical; conditions: human complement C1s enzyme 1.16 nM, substrate Z-L-Lys-SBzl, A405; read-out: IC50 (Stars)
T1 construct: purified from human serum, Complement Technology, Inc; purchased Complement Technology, Inc; host or cells: human serum (plasma-derived native protein)
T1 sequence (P09871 438-688 limits assumed): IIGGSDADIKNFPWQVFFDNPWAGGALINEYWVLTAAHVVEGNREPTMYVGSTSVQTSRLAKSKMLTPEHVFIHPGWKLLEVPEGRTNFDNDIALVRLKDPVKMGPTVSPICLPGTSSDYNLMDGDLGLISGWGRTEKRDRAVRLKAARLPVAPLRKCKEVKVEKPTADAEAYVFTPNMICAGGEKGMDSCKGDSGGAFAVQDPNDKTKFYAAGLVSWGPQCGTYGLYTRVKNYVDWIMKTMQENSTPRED
T1 sequence (P09871 16-437 partner limits assumed): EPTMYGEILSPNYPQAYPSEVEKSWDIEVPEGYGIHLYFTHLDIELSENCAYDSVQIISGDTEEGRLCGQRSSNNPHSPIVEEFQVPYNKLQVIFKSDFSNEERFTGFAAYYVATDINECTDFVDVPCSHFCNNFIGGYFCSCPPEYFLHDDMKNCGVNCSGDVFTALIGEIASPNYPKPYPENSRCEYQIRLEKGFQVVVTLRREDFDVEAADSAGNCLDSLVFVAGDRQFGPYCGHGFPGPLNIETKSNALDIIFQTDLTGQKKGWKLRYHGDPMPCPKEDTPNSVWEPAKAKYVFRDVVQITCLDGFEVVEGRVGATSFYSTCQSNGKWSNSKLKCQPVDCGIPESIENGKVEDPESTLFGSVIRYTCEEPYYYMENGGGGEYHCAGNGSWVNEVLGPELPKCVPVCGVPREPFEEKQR
Method in brief: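 Thioesterase activity followed colorimetrically (DTNB, A405, 30-s reads) using 100 μM Z-L-Lys-SBzl substrate. Enzyme, human serum-derived C1s at 1.16 nM final, was incubated with test compound for 5 min, room temperature, pH 7.5 Tris buffer with 1 M NaCl. Rate-versus-concentration data fitted by nonlinear regression for IC50.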

Compound | pIC50
C[C@@H](NC(=O)Cn1c(-c2ccccc2)cnc(NCCCc2ccccc2)c1=O)c1cc2cnccc2[nH]1 [Compound 12, (R)-N-(1-(1H-pyrrolo[3,2-c]pyridin-2-yl)ethyl)-2-(2-oxo-6-phenyl-3-((3-phenylpropyl)-amino)pyrazin-1(2H)-yl)-acetamide] | 6.00 to 7.00
O=C(Cn1c(-c2ccccc2)ncc(NCCCC(=O)c2ccc(Oc3ccccc3)cc2)c1=O)NCc1cc2cnccc2[nH]1 [Compound 88, N-((1H-pyrrolo[3,2-c]pyridin-2-yl)methyl)-2-(6-oxo-5-((4-oxo-4-(4-phenoxyphenyl)but-yl)amino)-2-phenylpyrimidin-1(6H)-yl)acetamide] | > 7.00
C[C@@H](Nc1cnc(N2CCn3c(nnc3C(F)(F)F)C2)n(CC(=O)NCc2cc3cnccc3[nH]2)c1=O)c1ccc2oc3ccccc3c2c1 [Compound 313, (R)-N-((1H-pyrrolo[3,2-c]pyridin-2-yl)methyl)-2-(5-((1-(dibenzo[b,d]furan-2-yl)ethyl)-amino)-6-oxo-2-(3-(trifluoro-methyl)-5,6-dihydro-[1,2,4]triazolo[4,3-a]pyrazin-7(8H)-yl)pyrimidin-1(6H)-yl)acet-amide] | 6.00 to 7.00
Cc1cnc(N[C@H](C)c2ccc3oc4ccccc4c3c2)c(=O)n1CC(=O)NCc1cc2cnccc2[nH]1 [Compound 349, (R)-N-((1H-pyrrolo[3,2-c]pyridin-2-yl)methyl)-2-(3-((1-(dibenzo[b,d]furan-2-yl)ethyl)-amino)-6-methyl-2-oxopyr-azin-1(2H)-yl)acetamide] | > 7.00
CS(=N)(=O)c1ccc(CCCNc2cnc(-c3ccccc3)n(CC(=O)NCc3cc4cnccc4[nH]3)c2=O)cc1 (stereo not drawn) [Compound 105, N-((1H-pyrrolo[3,2-c]pyridine-2-yl)methyl)-2-(5-((3-(4-(S-methylsulfonimidoyl)phenyl)propyl)amino)-6-oxo-2-phenylpyrimidin-1(6H)-yl) acetamide] | > 7.00
O=C(Cn1c(-c2ccccc2)ncc(NC(=O)c2ccc(Oc3ccc(F)cc3)cc2)c1=O)NCc1cc2cnccc2[nH]1 [Compound 52, N-(1-(2-(((1H-pyrrolo[3,2-c]pyridin-2-yl)methyl)amino)-2-oxoethyl)-6-oxo-2-phenyl-1,6-dihydropyrimidin-5-yl)-4-(4-fluorophenoxy)benzamide] | > 7.00
O=C(Cn1c(-c2ccccc2)ncc(NCc2ccc3sc4ccccc4c3c2)c1=O)NCc1cc2cnccc2[nH]1 [Compound 259, N-((1H-pyrrolo[3,2-c]pyridin-2-yl)methyl)-2-(5-((dibenzo [b,d]thiophen-2-ylmethyl)-amino)-6-oxo-2-phenylpyrimi-din-1(6H)-yl)acetamide] | > 7.00
O=C(Cn1c(-c2ccccc2)ncc(NC(=O)CCc2ccccc2)c1=O)NCc1cc2cnccc2[nH]1 [Compound 5, N-(1-(2-(((1H-pyrrolo[3,2-c]pyridin-2-yl)methyl)amino)-2-oxoethyl)-6-oxo-2-phenyl-1,6-dihydropyrimidin-5-yl)-3-phenylpropanamide] | > 7.00
Cc1ncc(NC(=O)c2coc(-c3ccccc3)n2)c(=O)n1CC(=O)NCc1cc2cnccc2[nH]1 [Compound 414, N-(1-(2-(((1H-pyrrolo[3,2-c]pyridine-2-yl)methyl)amino)-2-oxoethyl)-2-methyl-6-oxo-1,6-dihydropyrimidin-5-yl)-2-phenyloxazole-4-carboxamide] | > 7.00
C[C@@H](Nc1cnc(N2C[C@H]3C[C@@H](C2)C3)n(CC(=O)NCc2cc3cnccc3[nH]2)c1=O)c1ccc2oc3ccccc3c2c1 [Compound 387, N-((1H-pyrrolo[3,2-c]pyridin-2-yl)methyl)-2-(2-((1S,5S)-3-azabicyclo[3.1.1]heptan-3-yl)-5-(((R)-1-(dibenzo[b,d]furan-2-yl)ethyl)amino)-6-oxopyr-imidin-1(6H)-yl)acetamide] | 6.00 to 7.00
O=C(Cn1c(-c2ccc(S(F)(F)(F)(F)F)cc2)ncc(NCCCc2ccccc2)c1=O)NCc1cc2cnccc2[nH]1 [Compound 96, N-((1H-pyrrolo[3,2-c]pyridine-2-yl)methyl)-2-(6-oxo-2-(4-(pentafluoro-λ^6-sulfanyl)phenyl)-5-((3-phenylpropyl)amino)pyrimidin-1(6H)-yl)acetamide] | > 7.00
O=C(Cn1c(-c2ccccc2)ncc(NCc2cc3ccc2CCc2ccc(cc2)CC3)c1=O)NCc1cc2cnccc2[nH]1 [Compound 43, 2-(5-((1,4(1,4)-dibenzena-cyclohexaphane-1(2)-ylmeth-yl)amino)-6-oxo-2-phenylpyr-imidin-1(6H)-yl)-N-((1H-pyr-rolo[3,2-c]pyridin-2-yl)meth-yl)acetamide] | < 6.00
O=C(Cn1c(N2CCC(F)(F)C2)ncc(NCc2ccc3oc4ccccc4c3c2)c1=O)NCc1c[nH]c2ccncc12 [Compound 271, N-((1H-pyrrolo[3,2-c]pyridin-3-yl)methyl)-2-(5-((dibenzo [b,d]furan-2-ylmethyl)amino)-2-(3,3-difluoropyrrolidin-1-yl)-6-oxopyrimidin-1(6H)-yl)acet-amide] | > 7.00
O=C(Cn1c(-c2ccccc2)cnc(NC(=O)c2ccc3c(c2)-c2ccccc2C3(F)F)c1=O)NCc1cc2cnccc2[nH]1 [Compound 179, N-(4-(2-(((1H-pyrrolo[3,2-c]pyridin-2-yl)methyl)amino)-2-oxoethyl)-3-oxo-5-phenyl-3,4-dihydropyrazin-2-yl)-9,9-difluoro-9H-fluorene-3-carbox-amide] | > 7.00
O=C(Cn1c(-c2ccccc2)ncc(NC(=O)c2ccc(-c3cnco3)cc2)c1=O)NCc1cc2cnccc2[nH]1 [Compound 93, N-(1-(2-(((1H-pyrrolo[3,2-c]pyridin-2-yl)methyl)amino)-2-oxoethyl)-6-oxo-2-phenyl-1,6-dihydropyrimidin-5-yl)-4-(oxazol-5-yl)benzamide] | > 7.00
C[C@@H](Nc1cnc(-c2ccccc2)n(CC(=O)NCc2cc3cnccc3[nH]2)c1=O)c1ccc2oc3ccccc3c2c1 [Compound 126, (R)-N-((1H-pyrrolo[3,2-c]pyr-idin-2-yl)methyl)-2-(5-((1-(dibenzo[b,d]furan-2-yl)ethyl)-amino)-6-oxo-2-phenylpyrimi-din-1(6H)-yl)acetamide] | > 7.00
Cc1c(NCCCc2ccccc2)ccc(-c2ccccc2)c1CC(=O)NCc1cc2cnccc2[nH]1 [Compound 85, N-((1H-pyrrolo[3,2-c]pyridine-2-yl)methyl)-2-(3-methyl-4-((3-phenylpropyl)amino)-[1,1′-biphenyl]-2-yl)acetamide] | < 6.00
O=C(Cn1c(-c2ccccc2)ncc(NCCCc2ccc(C3CC3)cc2)c1=O)NCc1cc2cnccc2[nH]1 [Compound 77, N-((1H-pyrrolo[3,2-c]pyridin-2-yl)methyl)-2-(5-((3-(4-cyclo-propylphenyl)propyl)amino)-6-oxo-2-phenylpyrimidin-1(6H)-yl)acetamide] | > 7.00
